This is an account of results in PMC6944710, “In vitro and in silico insights into tyrosinase inhibitors with (E)-benzylidene-1-indanone derivatives” (Computational and Structural Biotechnology Journal, 2019).

A word on the melting point: it is the temperature, or range, at which the solid turns liquid. Usually IC50 stands for the concentration at which inhibition is half-maximal. One may read the Ki as a measure of affinity in units of concentration, obtained from inhibition or displacement.

The structures appear in SMILES notation. “Also recorded” adds a separate entry of the source. Where two headings read alike, the source gives them in different places.

For series [1], the target named is mushroom tyrosinase. The series can be described thus: Mushroom tyrosinase inhibitory assay (L-tyrosine or L-DOPA as substrate). In kind it is biochemical, Agaricus bisporus. The conditions noted are these: for IC50: mean ± SEM of triplicate experiments; for Tyrosinase inhibitory activity (in words) / Inhibitory effect at the concentration of 200 µM: mushroom tyrosinase; for Tyrosinase inhibitory activity (in words): L-tyrosine and L-DOPA. How it is done:
Tyrosinase inhibitory activity assay was performed using mushroom tyrosinase as described previously, with minor modification, [36]. […] […] The reaction mixtures were incubated at 37 °C for 30 min. After that, the amount of dopachrome produced in each well was measured by spectrophotometric analysis at 492 nm (OD492) using a microplate reader.

The next series has as its system tyrosinase. The settings on record: cited from earlier work.
In series [2] the target is T1, cellular tyrosinase of B16F10 cells (Mus musculus, UniProt P11344).
T1 construct: endogenous in cells; host or cells: B16F10 melanoma cells
T1 sequence (P11344 19-533): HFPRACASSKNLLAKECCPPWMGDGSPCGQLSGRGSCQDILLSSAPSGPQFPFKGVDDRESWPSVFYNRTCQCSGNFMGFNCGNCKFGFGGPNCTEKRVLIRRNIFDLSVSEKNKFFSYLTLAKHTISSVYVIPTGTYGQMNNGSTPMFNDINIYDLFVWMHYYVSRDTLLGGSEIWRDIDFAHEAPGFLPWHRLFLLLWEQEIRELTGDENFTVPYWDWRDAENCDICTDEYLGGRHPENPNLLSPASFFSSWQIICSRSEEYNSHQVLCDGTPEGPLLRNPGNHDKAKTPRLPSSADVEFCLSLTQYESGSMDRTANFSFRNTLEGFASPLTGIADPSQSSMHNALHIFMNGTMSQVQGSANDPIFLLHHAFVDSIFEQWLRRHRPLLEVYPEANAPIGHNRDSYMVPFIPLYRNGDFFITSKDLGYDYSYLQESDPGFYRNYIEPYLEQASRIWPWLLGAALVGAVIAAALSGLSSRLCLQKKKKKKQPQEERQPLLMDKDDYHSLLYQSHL
The series can be described thus: Cellular tyrosinase activity in α-MSH and IBMX-stimulated cells. In kind it is cell-based, Murine. The settings on record: BID3 1, 5, and 20 µM (methods: 1, 5, and 10 µM), 48 h. How it is done:
Cellular tyrosinase activity was assessed as described previously, with slight modifications, [45]. Briefly, 2 × 10^5/cells were plated in 6-well dishes and incubated overnight. […] After being rinsed twice with PBS, the cells were lysed with 100 µL lysis solution containing 50 mM phosphate buffer (pH 6.5), 0.1 mM phenylmethylsulfonylfluoride (PMSF), and 1% Triton X-100 and frozen at −80 °C for 30 min. Lysates were thawed and centrifuged at 12,000 rpm for 30 min at 4 °C. […] After incubation at 37 °C for 30 min, the optical density at 492 nm was measured using an ELISA reader (TECAN, Salzburg, Austria). The protein concentration was determined using BCA protein assay reagent using […] (Thermo Scientific, Rockford, IL, USA).

For series [3], the system named is B16F10 melanoma cells. The experiment in a line: Melanin contents assay in α-MSH and IBMX-stimulated cells. In kind it is cell-based, Murine. The conditions noted are these: BID3 1, 5, and 20 µM (methods: 1, 5, and 10 µM), 48 h. How it is done: Melanin content was determined as described previously. B16F10 melanoma cells (2 × 10^5 cells/well) were seeded in 6-well culture plates. […] After washed twice with PBS, the cells were detached by incubation in Trypsin/EDTA, and the pellets were dissolved in 100 µL of 1 N NaOH, and then incubated at 60 °C for 1 h and mixed to solubilize the melanin. The melanin contents were determined by measuring absorbance at 405 nm by using the ELISA reader (TECAN, Sunrise, Austria). The melanin content was calculated using the following equation: (Δsample/Δcontrol) × 100%. All determinations were performed in triplicate.

Series [4] deals with mushroom tyrosinase. The experiment in a line: Enzyme kinetic analysis with tyrosinase (Lineweaver-Burk and Dixon plots). It counts as biochemical, Agaricus bisporus. The conditions noted are these: L-DOPA as substrate. As to the method:
To determine the kinetic mechanisms of inhibition, two complimentary kinetics methods were used: Lineweaver–Burk and Dixon plots, [38], [39]. Using Lineweaver-Burk plots (double reciprocal plots), the inhibition type of BID3 was determined using various concentrations of L-DOPA (0.125, 0.25, 0.5, and 1 mM), as substrates, in the absence and presence of various concentrations of BID3 (1, 2, and 4 μM). A Dixon plot (single reciprocal plots) for tyrosinase inhibition was obtained in the presence of various concentrations of L-DOPA (0.125, 0.25, 0.5, and 1 mM). The concentrations of BID3 were 1, 2, and 4 µM. The enzymatic procedures consisted of the previously described tyrosinase assay methods. The inhibition constant (Ki) was determined from the interpretation of Dixon plots.

Series [5] concerns B16F10 melanoma cells. The series can be described thus: Cell viability assay (EZ-Cytox). It counts as cell-based, Murine. The settings on record: 1–20 µM, 24 h and 48 h. How it is done:
Murine melanoma B16F10 cells were purchased from the Korean Cell Line Bank (KCLB, Seoul, Korea) and cultured in DMEM supplemented with 10% FBS and 1% streptomycin, and then incubated at 37 °C, humidified with 5% atmospheric CO2. Cell viability analyses were performed as previously described. Briefly, cells seeded at a density of 1 × 10^4 cells/well in a 96-well plate for 24 h. On the following day, the cells were exposed to different concentrations of BID3 and incubated for 24 or 48 h, respectively. Then, 10 µL EZ-Cytox solution was added to each well and the cells were incubated for 2–4 h. Absorbance was determined using ELISA at a wavelength of 450 nm. Each assay was performed in triplicate.

Where [6] appears, read: L-DOPA substrate, read-out: IC50 (μM), L-DOPA as substrate (diphenolase activity).
Where [7] appears, read: L-tyrosine substrate, read-out: IC50 (μM), L-tyrosine as substrate (monophenolase activity).

`O=C1/C(=C/c2ccc(O)c(Br)c2)Cc2ccccc21` [BID12, (E)-2-(3-Bromo-4-hydroxybenzylidene)-2,3-dihydro-1H-inden-1-one]: the melting point was in the range of 225 to 226.2 °C. Also, on mushroom tyrosinase [1] (setting [6]), the IC50 was more than 200 µM. In addition, the IC50 at mushroom tyrosinase [1] (setting [7]) was more than 200 µM.
Consider `O=c1cc(CO)occ1O` [Kojic acid, kojic acid], for which the “Reported type of tyrosinase inhibition” value in the series on tyrosinase was “competitive type inhibitor”.
Turning to `O=C1/C(=C/c2ccc(O)cc2O)Cc2ccccc21` [BID3, (E)-2-(2,4-Dihydroxybenzylidene)-2,3-dihydro-1H-inden-1-one], the Cellular tyrosinase activity result in series [2] was “inhibited; also recorded: concentration dependently decrease”. In addition, the Melanin contents result in the series on B16F10 melanoma cells [3] is reported as “decreased; also recorded: concentration dependently decrease”. On mushroom tyrosinase [4] (Dixon plot), this compound returned a Ki of 2400 nM. In addition, the “Type of tyrosinase inhibition” value with mushroom tyrosinase [4] (Lineweaver-Burk and Dixon plots) is listed as “mixed-type inhibition; also recorded: mixed-type inhibitor”. The “Cytotoxic effect on B16F10 cells” value in the series on B16F10 melanoma cells [5] is given as “no significant cytotoxic effect; also recorded: without inducing cytotoxicity”. The IC50 on mushroom tyrosinase [1] (setting [6]) was 1.39 ± 4e-05 µM; on mushroom tyrosinase [1] (setting [7]), 0.034 ± 0.00224 µM.
Consider `COc1cc(/C=C2\Cc3ccccc3C2=O)cc(OC)c1O` [BID11, (E)-2-(4-Hydroxy-3,5-dimethoxybenzylidene)-2,3-dihydro-1H-inden-1-one], for which the melting point fell in the range of 190.2 to 191.1 °C. At mushroom tyrosinase [1] (setting [6]), the IC50 was more than 200 µM. For the same compound, at mushroom tyrosinase [1] (setting [7]), the IC50 amounted to 75.2 ± 2.24 µM. Also, in the series with mushroom tyrosinase [1], the “Tyrosinase inhibitory activity (in words)” value was “moderate tyrosinase inhibitory activity”.
`CCOc1cc(/C=C2\Cc3ccccc3C2=O)ccc1O` [BID5, (E)-2-(3-Ethoxy-4-hydroxybenzylidene)-2,3-dihydro-1H-inden-1-one] registered a melting point of 135.8 to 136.4 °C. For the same compound, the IC50 at mushroom tyrosinase [1] (setting [6]) was more than 200 µM. Moreover, the concentration for half-maximal inhibition (IC50) on mushroom tyrosinase [1] (setting [7]) was more than 200 µM.
For `COc1ccc(/C=C2\Cc3ccccc3C2=O)cc1O` [BID6, (E)-2-(3-Hydroxy-4-methoxybenzylidene)-2,3-dihydro-1H-inden-1-one], the IC50 at mushroom tyrosinase [1] (setting [6]) amounted to 50.8 ± 2.16 µM; at mushroom tyrosinase [1] (setting [7]), 5 ± 0.91 µM.
For `O=C1/C(=C/c2ccc(O)cc2)Cc2ccccc21` [BID1, (E)-2-(4-Hydroxybenzylidene)-2,3-dihydro-1H-inden-1-one], the IC50 is 130 ± 5.39 µM on mushroom tyrosinase [1] (setting [6]) and 39.7 ± 3.71 µM at mushroom tyrosinase [1] (setting [7]).
As to `O=C(O)c1ccccc1C(=O)O` [Phthalic acid, phthalic acid, reference compound], in the series on tyrosinase, the “Reported type of tyrosinase inhibition” value was “mixed-mode tyrosinase inhibitor”. The “Inhibitory effect at the concentration of 200 µM” value in the series with mushroom tyrosinase [1] is “no inhibitory effect”. Also, the IC50 at mushroom tyrosinase [1] (setting [6]) and at mushroom tyrosinase [1] (setting [7]) was more than 200 µM throughout.
Regarding `COc1cc(/C=C2\Cc3ccccc3C2=O)cc(OC)c1OC` [BID10, (E)-2-(3,4,5-Trimethoxybenzylidene)-2,3-dihydro-1H-inden-1-one], the melting point lay in the range of 164.4 to 165.2 °C. Besides, the IC50 at mushroom tyrosinase [1] (setting [6]) is more than 200 µM. For the same compound, at mushroom tyrosinase [1] (setting [7]), the concentration for half-maximal inhibition (IC50) was more than 200 µM.
For the compound `O=C(O)/C=C/c1ccccc1` [Cinnamic acid, trans-cinnamic acid, reference compound], the “Reported type of tyrosinase inhibition” value in the series with tyrosinase is given as “mixed-mode tyrosinase inhibitor”. Further, the “Inhibitory effect at the concentration of 200 µM” value with mushroom tyrosinase [1] is given as “no inhibitory effect”. Moreover, the IC50 at mushroom tyrosinase [1] (setting [6]) and on mushroom tyrosinase [1] (setting [7]) was more than 200 µM each time.
For the compound `COc1ccc(/C=C2\Cc3ccccc3C2=O)cc1OC` [BID8, (E)-2-(3,4-Dimethoxybenzylidene)-2,3-dihydro-1H-inden-1-one], the melting point lay within 176.5 to 177.2 °C. For the same compound, the concentration for half-maximal inhibition (IC50) at mushroom tyrosinase [1] (setting [6]) is more than 200 µM. Moreover, the IC50 at mushroom tyrosinase [1] (setting [7]) was more than 200 µM.
As for `O=C1/C(=C/c2ccc(O)c(O)c2)Cc2ccccc21` [BID2, (E)-2-(3,4-Dihydroxybenzylidene)-2,3-dihydro-1H-inden-1-one], the IC50 on mushroom tyrosinase [1] (setting [6]) amounted to 52.9 ± 2.62 µM; on mushroom tyrosinase [1] (setting [7]), 41.3 ± 3.03 µM.
Take `O=C1/C(=C/c2cc(Br)c(O)c(Br)c2)Cc2ccccc21` [BID13, (E)-2-(3,5-Dibromo-4-hydroxybenzylidene)-2,3-dihydro-1H-inden-1-one]: the melting point lay in the range of 267.4 to 268.1 °C. Moreover, the IC50 at mushroom tyrosinase [1] (setting [6]) stood at 75.3 ± 7.94 µM. For the same compound, the IC50 on mushroom tyrosinase [1] (setting [7]) was more than 200 µM.
Regarding `COc1ccc(/C=C2\Cc3ccccc3C2=O)cc1` [BID7, (E)-2-(4-Methoxybenzylidene)-2,3-dihydro-1H-inden-1-one], the IC50 at mushroom tyrosinase [1] (setting [6]) and on mushroom tyrosinase [1] (setting [7]) was more than 200 µM each time.
Take `COc1ccc(/C=C2\Cc3ccccc3C2=O)c(OC)c1` [BID9, (E)-2-(2,4-Dimethoxybenzylidene)-2,3-dihydro-1H-inden-1-one]: the IC50 is 96.9 ± 9.78 µM on mushroom tyrosinase [1] (setting [6]) and more than 200 µM on mushroom tyrosinase [1] (setting [7]).
As to `COc1cc(/C=C2\Cc3ccccc3C2=O)ccc1O` [BID4, (E)-2-(4-Hydroxy-3-methoxybenzylidene)-2,3-dihydro-1H-inden-1-one], the IC50 on mushroom tyrosinase [1] (setting [6]) is more than 200 µM; on mushroom tyrosinase [1] (setting [7]), 73.5 ± 5.78 µM. Moreover, the “Tyrosinase inhibitory activity (in words)” value in the series with mushroom tyrosinase [1] was “moderate tyrosinase inhibitory activity”.
